The nature of assay [1]: Monitoring H2S2 formation from the TTS-TAGDD hybrid compound 3 (SSP4, 12 h). The settings on record: over 12 hours. The method, then:
Monitoring H2S2 formation from the TTS-TAGDD hybrid compound 3: TTS and 3 were prepared as 1 mM solutions in DMSO. L-cysteine and Na2S2 were prepared at 4 mM and 1 mM in MilliQ H2O, respectively. SSP4 was dissolved in DMSO to obtain a 200 μM stock solution. CTAB was dissolved in ethanol to yield a 2 mM stock solution. 50 mM PBS buffer (pH 7.4) was added to individual wells of a black polystyrene, flat-bottomed clear 96-well plate, followed by TTS (25 μM) or 3 (25 μM) then cysteine (100 μM) or Na2S2 (25 μM). Samples were mixed by pipetting up and down and incubated in the dark at room temperature (rt) for 30 min. Next, CTAB (50 μM) was added to all wells followed by SSP4 (5 μM), and samples were mixed by pipetting up and down. Samples were then incubated in the dark at room temperature for another 30 min before being measured on a Molecular Devices SpectraMax iD3 Multi-Mode Microplate Reader (fluorescence mode; kinetics measurement type; emission 535 nm; excitation 485 nm; integration time […], low PMT sensitivity, attenuation 1, read height 1.00 mm; total run time: 12 hours; 25 cycles; interval: 0.5 hours). Data was graphed as a time dependent fluorescence response, with F0 as the SSP4 only condition. The fluorescence of Na2S2 over time was not represented in the line graph presented due to the compound's known instability. Data obtained from the 12 h time point including from Na2S2 was also represented in a bar graph for greater clarity. Results were expressed as mean±SEM (n=3).

Assay [2] has as its target T1, GAPDH (Oryctolagus cuniculus, UniProt P46406).
T1 construct: GAPDH (from rabbit muscle, #G2267, Sigma-Aldrich); purchased Sigma-Aldrich G2267; host or cells: rabbit muscle (tissue-purified)
In words: GAPDH protein S-persulfidation (SSP4 fluorescence, LC-MS/MS). It counts as biochemical, rabbit. The conditions noted are these: reduced GAPDH 100 μM treated with the reagent only (1 mM). Here is the method:
One of the primary functions of H2S2 is to induce protein S-persulfidation. Existing methods treat proteins with Na2S2 directly to obtain the persulfidated proteins. The present disclosure contemplates the use of TTS and H2S to persulfidate proteins as a comparison with Na2S2. GAPDH was used as the protein model and its persulfidation was evaluated by SSP4 using a protocol described in Shieh, M. et al., Shining a light on SSP4: a comprehensive analysis and biological applications for the detection of sulfane sulfurs. Redox Biol. 2022, 56, 102433 and Ni, X. et al., A sweet H2S/H2O2 dual release system and specific protein S-persulfidation mediated by thioglucose/glucose oxidase. J. Am. Chem. Soc. 2021, 143, 13325-13332. Reduced GAPDH (100 μM) was individually treated with 10 eq. of TTS+Na2S or Na2S2, as well as control reagents (TTS or Na2S only). The protein samples were then purified using Zeba Spin Desalting Columns (7K MWCO), diluted (to 10 μM), and treated with SSP4 (5 μM). Fluorescence signals were recorded to reflect persulfidation levels. […] To provide further evidence of persulfidation in the GAPDH system, TTS+Na2S-treated GAPDH was alkylated with HPE-IAM to stabilize the protein persulfides.
216 μL of PBS (50 mM, pH 7.4) was added to 3.9 mg of GAPDH (from rabbit muscle, #G2267, Sigma-Aldrich) to obtain a concentration of 500 μM (MW: 36 kDa). DTT (10 mM in DMSO, 11.35 μL) was added for a final equal concentration with the GAPDH. The solution was incubated in the dark at room temperature for 30 min. Zeba 7K MWCO spin columns were prepared and used according to manufacturer's instructions with 3 PBS washes. Excess reductant was removed by column purification with the Zeba 7K MWCO columns. The resulting reduced protein concentration was determined by the absorbance at 280 nm (εmM=30.4 mM-1 cm-1) using the Nanodrop One Microvolume UV-Vis Spectrophotometer (ThermoFisher Scientific). For controls, reduced GAPDH was treated with NEM (1:5 equiv.) and incubated at rt in the dark for 30 min before excess NEM was removed by the Zeba 7K MWCO columns. Next, the reduced protein was diluted to a final concentration of 100 μM in a final volume of 100 μL and treated with TTS (10 μL of 10 mM in DMSO for a final concentration of 1 mM), Na2S (10 μL of 10 mM in MilliQ H2O for a final concentration of 1 mM), both TTS and Na2S, or Na2S2 (10 μL of 10 mM in MilliQ H2O for a final concentration of 1 mM). For example, if the reduced protein (361 μM) was only to be treated with TTS, 62.3 μL of PBS (50 mM, pH 7.4) would first be added to an Eppendorf tube, followed by 27.7 μL of protein, and followed by 10 μL of TTS. TTS+Na2S and Na2S2 samples were also prepared at the concentrations above without any protein, where PBS (50 mM, pH 7.4) was used in place of the proteins (volume-wise). Samples were incubated at room temperature for 30 min in the dark before being purified by Zeba 7K MWCO columns (three times to ensure proper removal of excess treatment molecules) and quantified by absorbance. […] All samples were then incubated with SSP4 (5 μL of 100 μM in DMSO for a final concentration of 5 μM) in individual wells of a black clear flat bottom 96-well plate. The final volume was 100 μL. For example, if the persulfidated protein (99.5 μM) was to be examined, 84.95 μL of PBS (50 mM, pH 7.4) would first be added to a well, followed by 10.05 μL of protein, and then followed by 5 μL of SSP4. Incubation occurred at room temperature in the dark for 30 min before being measured on the SpectraMax iD3 microplate reader (ex: 485 nm; em: 525 nm).

Assay [3] has as its system HeLa cells. In words: Live cell imaging of H2S2 formation with SSP4. The assay is classed as cell-based. The conditions noted are these: compound only, 30 min. The method, then: HeLa cells were seeded at ~7000 cells/well in a 96-well clear flat-bottomed BioLite plate (ThermoFisher Scientific, #130188) in DMEM/F12 (1:1) (Gibco, Invitrogen, #11330-032) medium supplemented with 10% fetal bovine serum (FBS) at 37° C., 5% CO2 overnight.
Preparation before cell treatment: Na2S and Na2S2 stocks were prepared at 10 mM in sterile 1×PBS. TTS and TT were prepared at 10 mM concentrations in DMSO. They were then diluted to 50 μM concentrations in serum-free Fluorobrite DMEM in individual Eppendorf tubes (0.5% DMSO). Na2S (final concentration=100 μM) was added to the Eppendorf tube containing Fluorobrite DMEM and TTS or TT immediately before being added to the cells. Compounds were mixed by pipetting up and down prior to cell addition.
Cell treatment: Culturing media was aspirated from all wells, and cells were washed twice with 1×PBS. Compounds were added to cells (200 μL/well) and incubated for 30 min at 37° C., 5% CO2. While cells were incubating, SSP4 treatment was prepared by first adding 5 mM CTAB in ethanol to Fluorobrite DMEM followed by 6.125 mM SSP4 in DMSO to final concentrations of 100 μM and 5 μM, respectively, in a tube. The final volume was 5 mL (0.08% DMSO). Compounds were mixed by pipetting up and down prior to cell addition. After incubation, media was aspirated, and cells were washed twice with 1×PBS. SSP4 treatment was added to all wells (100 μL/well), and cells were incubated for 30 min at 37° C., 5% CO2 for 30 min. Media was then aspirated, and cells were washed three times with 1×PBS. Fluorobrite DMEM was added to all wells before imaging on the Keyence All-in-One Fluorescence Microscope (BZ-X810) (excitation: 470/40 nm; emission: 525/50 nm).
As shown in FIGS. 4(A)-(D), HeLa cells were treated with TTS, TTS+H2S, or TT for 30 min before the fluorescent sensor SSP4 was applied to the cells to monitor the formation of H2S2. […] Na2S2 was used as the positive control in this study (FIG. 4D). Other control studies including TT+H2S, H2S only, and SSP4 only were also performed. […] FIG. 4H is a graph of fluorescence intensities of SSP4 staining. Data are mean values ±SEM calculated using ImageJ. (n=9, where three different images were obtained from each of three samples and quantified).

The text below walks through data of US20260265055A1, “Sulfine-Based Compounds for Generating Hydrogen Persulfide” (Brown University, priority 2023, published 2026).

T1 sequence (P46406 whole entry): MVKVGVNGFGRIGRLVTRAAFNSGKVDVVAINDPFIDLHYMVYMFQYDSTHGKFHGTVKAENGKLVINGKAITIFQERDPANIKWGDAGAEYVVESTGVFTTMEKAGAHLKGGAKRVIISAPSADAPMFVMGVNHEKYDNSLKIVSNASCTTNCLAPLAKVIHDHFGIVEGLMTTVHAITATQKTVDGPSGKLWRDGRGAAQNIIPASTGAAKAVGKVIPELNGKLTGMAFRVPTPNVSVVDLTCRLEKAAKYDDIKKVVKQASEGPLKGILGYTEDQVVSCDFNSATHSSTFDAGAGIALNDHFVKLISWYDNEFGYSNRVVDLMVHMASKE

Take `CC(=O)SC(SC(C)=O)c1cccc(OC(=O)c2ccc(=S=O)sc2)c1` [Compound 3]: the “H2S2 formation monitored by SSP4 signals” value in assay [1] (25 μM compound + Cys 100 μM) is “steady and continuous H2S2 formation”. The SSP4 fluorescence result in assay [1] (25 μM compound only) was “did not give any notable fluorescence”.
On to `[Na+].[Na+].[S-][S-]` [Na2S2, reference compound], for which the “SSP4 fluorescence of persulfidated GAPDH” value in assay [2] is “strong fluorescence”.
In the case of `[Na+].[Na+].[S-2]` [Na2S, reference compound], the “SSP4 fluorescence in HeLa cells” value in assay [3] is reported as “Obvious fluorescence in these samples was not observed”. Besides, in assay [2], the “SSP4 fluorescence of persulfidated GAPDH” value is on record as “did not give any notable fluorescence”.
